The values that follow come from US20230303575A1, “FGFR AND MUTATION INHIBITOR THEREOF, PREPARATION METHOD THEREFOR AND USE THEREOF” (Abbisko Therapeutics Co., Ltd., priority 2020, published 2023).

Assay type in all cases: cell-based
In one assay the target is T1, FGFR2 V564F (Homo sapiens, UniProt P21802, V564F).
T1 construct: P41212 (Transcription factor ETV6)
Description: Cell proliferation assay for Tel-FGFR2 V564F in BaF3. Conditions: BaF3 cells expressing FGFR2 V564F fusion, 48 hrs, CellTiter Glo. Put shortly:
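BaF3 cells stably expressing TEL-FGFR2 kinase-domain fusions carrying the mutation were seeded at 2000-4000 cells/well in DMEM with 10% FBS, then treated 48 h at 37 °C with 9-point 3× dilutions from 1 μM (0.3% DMSO). CellTiter-Glo luminescence normalized to % survival gave IC50 (nM).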

The next assay concerns the target T2, FGFR2 V564L (Homo sapiens, UniProt P21802, V564L).
T2 construct: P41212 (Transcription factor ETV6)
The assay is described as follows: Cell proliferation assay for Tel-FGFR2 V564L in BaF3. Conditions: BaF3 cells expressing FGFR2 V564L fusion, 48 hrs, CellTiter Glo. As for the experimental part:
(§1) By transfection, cell strains of the intracellular kinase domain fusion protein of TEL-FGFR2 WT or the intracellular domain fusion proteins containing FGFR2 V564, V564F, V564L, N549K and K659M mutations were stably expressed in Baf cells. On day 1, the cell suspension was plated into a 96-well plate containing growth medium (DMEM containing 1% Glutamax, 10% FBS and 1% Pen/Strep) at 2000-4000 cells/90 μL/per well, and then the mixture was incubated overnight at 37° C. and 5% CO2. On day 2, 10 μL of growth medium containing a 10-fold stock solution of test compound was added to the cell culture (9 dose points, 3× serial dilution, starting from 1 μM, finally 0.3% DMSO). After incubation at 37° C. and 5% CO2 for 48 hrs, 50 μL of CellTiter Glo (CTG) reagent was added to the cell-containing 96-well plate on day 3, and the plate was then incubated at room temperature for 10 min. Then relative light units (RLUs) were measured on a microplate reader with a luminescence detection module. RLU values were normalized to % survival, and concentration-response curves were plotted using Prism to calculate IC50 (nM).

The target in the next assay is T3, FGFR2 V564I (Homo sapiens, UniProt P21802, V564I).
T3 construct: P41212 (Transcription factor ETV6)
The assay is described as follows: Cell proliferation assay for Tel-FGFR2 V564I in BaF3. The settings on record: BaF3 cells expressing FGFR2 V564I fusion, 48 hrs, CellTiter Glo. The protocol:
as §1

A further assay concerns the target T4, FGFR2 N549K (Homo sapiens, UniProt P21802, N549K).
T4 construct: P41212 (Transcription factor ETV6)
The assay is described as follows: Cell proliferation assay for Tel-FGFR2 N549K in BaF3. Conditions: BaF3 cells expressing FGFR2 N549K fusion, 48 hrs, CellTiter Glo. The protocol: as §1

Another assay concerns the target T5, FGFR2 K659M (Homo sapiens, UniProt P21802, K659M).
T5 construct: P41212 (Transcription factor ETV6)
The assay is described as follows: Cell proliferation assay for Tel-FGFR2 K659M in BaF3. The settings on record: BaF3 cells expressing FGFR2 K659M fusion, 48 hrs, CellTiter Glo. The protocol: as §1

In another assay the target is T6, FGFR3 V555M (Homo sapiens, UniProt P22607, V555M).
T6 construct: P41212 (Transcription factor ETV6)
The assay is described as follows: Cell proliferation assay for FGFR3 V555M in BaF3. Conditions: BaF3 cells expressing FGFR3 V555M fusion, 48 hrs, CellTiter Glo. Put shortly:
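Ba/F3 cells stably expressing TEL-FGFR3 kinase-domain fusions carrying N540K or V555M, 2000–4000 cells/well in DMEM/10% FBS, exposed 48 h at 37 °C to compound (9 points, 3-fold from 1 μM, 0.3% DMSO). Viability by CellTiter-Glo luminescence, normalized to % survival; IC50 (nM) fitted.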

In a further assay the target is T7, FGFR3 N540K (Homo sapiens, UniProt P22607, N540K).
T7 construct: P41212 (Transcription factor ETV6)
The assay is described as follows: Cell proliferation assay for FGFR3 N540K in BaF3. Conditions: BaF3 cells expressing FGFR3 N540K fusion, 48 hrs, CellTiter Glo. As for the experimental part: For the compounds of the Examples of the present invention, cell strains of TEL-FGFR3 WT intracellular kinase domain fusion protein or intracellular domain fusion protein containing FGFR3 V555M or FGFR3 N540K mutation were stably expressed in Baf cells by transfection and were used to determine the cell proliferation effect of BaF3-Tel-FGFR3 WT. FGFR3 V555M or FGFR3 N540K. The specific test process was as follows: • 1) The cell suspension was plated into a 96-well plate containing growth medium (DMEM containing 1% Glutamax, 10% FBS and 1% Pen/Strep) at 2000-4000 cells/90 μL/per well, and then the mixture was incubated overnight at 37° C. and 5% CO2. • 2) 10 μL of growth medium containing a 10-fold stock solution of test compound was added to the cell culture (9 dose points, 3× serial dilution, starting from 1 μM, finally 0.3% DMSO). • 3) The mixture was incubated at 37° C. and 5% CO2 for 48 hrs. • 4) 50 μL of CellTiter Glo (CTG) reagent was added to the cell-containing 96-well plate, and the plate was then incubated at room temperature for 10 min. • 5) Relative light units (RLUs) were measured on a microplate reader with a luminescence detection module. RLU values were normalized to % survival, and concentration-response curves were plotted using Prism to calculate IC50 (nM).

T4 sequence (P21802 481-770 N549K limits assumed): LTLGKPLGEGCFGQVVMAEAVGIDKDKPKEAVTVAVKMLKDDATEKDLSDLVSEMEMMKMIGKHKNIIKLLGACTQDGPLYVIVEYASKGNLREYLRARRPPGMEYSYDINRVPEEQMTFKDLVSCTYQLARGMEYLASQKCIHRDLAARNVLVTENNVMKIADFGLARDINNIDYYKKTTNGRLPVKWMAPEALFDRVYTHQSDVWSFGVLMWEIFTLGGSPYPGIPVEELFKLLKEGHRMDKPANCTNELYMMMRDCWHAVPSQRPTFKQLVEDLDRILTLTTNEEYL
T3 sequence (P21802 481-770 V564I limits assumed): as the sequence (P21802 481-770 N549K limits assumed) above, with K69N, V84I counted along it
T5 sequence (P21802 481-770 K659M limits assumed): as the sequence (P21802 481-770 N549K limits assumed) above, with K69N, K179M counted along it
T6 sequence (P22607 472-761 V555M limits assumed): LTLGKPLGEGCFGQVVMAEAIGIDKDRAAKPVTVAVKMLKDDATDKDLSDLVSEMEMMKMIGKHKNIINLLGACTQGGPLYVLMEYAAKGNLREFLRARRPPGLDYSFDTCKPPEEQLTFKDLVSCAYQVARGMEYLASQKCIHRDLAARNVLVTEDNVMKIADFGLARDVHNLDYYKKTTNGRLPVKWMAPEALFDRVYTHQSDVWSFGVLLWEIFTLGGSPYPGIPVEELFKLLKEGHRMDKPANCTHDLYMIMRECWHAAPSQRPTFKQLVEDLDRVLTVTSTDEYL
T7 sequence (P22607 472-761 N540K limits assumed): as the sequence (P22607 472-761 V555M limits assumed) above, with N69K, M84V counted along it
T1 sequence (P21802 481-770 V564F limits assumed): as the sequence (P21802 481-770 N549K limits assumed) above, with K69N, V84F counted along it
T2 sequence (P21802 481-770 V564L limits assumed): as the sequence (P21802 481-770 N549K limits assumed) above, with K69N, V84L counted along it

Regarding `C=CC(=O)N1CC[C@H](n2nc(C#Cc3ccc4oc(C5CC5)nc4c3)c3c(N)ncnc32)C1` [Example 20, (S)-1-(3-(4-amino-3-((2-cyclopropylbenzo[d]oxazol-5-yl)ethynyl)-1H-pyrazolo [3,4-d]pyrimidin-1-yl)pyrrolidin-1-yl)prop-2-en-1-one], the IC50 is 0.5 to 5 nM at FGFR2 V564F; 0.5 to 5 nM against FGFR2 V564L; at most 0.5 nM at FGFR2 V564I; 0.5 to 5 nM against FGFR2 N549K; 5 to 50 nM against FGFR2 K659M; 0.5 to 5 nM against FGFR3 V555M. This compound registered an IC50 against FGFR3 N540K of 0.5 to 5 nM.
Regarding `C=CC(=O)N1CC[C@H](n2cc(C#Cc3ccc4oc(C5CC5)nc4c3)c3c(N)ncnc32)C1` [Example 1, (S)-1-(3-(4-amino-5-((2-cyclopropylbenzo[d]oxazol-5-yl)ethynyl)-7H-pyrrolo[2,3-d]pyrimidin-7-yl)pyrrolidin-1-yl)prop-2-en-1-one], the IC50 is 0.5 to 5 nM against FGFR2 V564F; 0.5 to 5 nM at FGFR2 V564L; at most 0.5 nM against FGFR2 V564I; 0.5 to 5 nM against FGFR2 N549K; 0.5 to 5 nM at FGFR2 K659M; 0.5 to 5 nM on FGFR3 V555M. At FGFR3 N540K, this compound displayed a half-maximal inhibitory concentration (IC50) of 0.5 to 5 nM.
For the compound `C=CC(=O)N1CC[C@H](n2nc(C#Cc3c(F)cc4sc(C5CC5)nc4c3F)c3c(N)ncnc32)C1` [Example 62, (S)-1-(3-(4-amino-3-((2-cyclopropyl-4,6-difluoro-benzo[d]thiazol-5-yl)ethynyl)-1H-pyrazolo[3,4-d]pyrimidin-1-yl)pyrrolidin-1-yl) prop-2-en-1-one], the IC50 against FGFR2 V564F was at most 0.5 nM; against FGFR2 V564L it was 0.5 to 5 nM; against FGFR2 V564I it was at most 0.5 nM; on FGFR2 N549K, 0.5 to 5 nM; against FGFR2 K659M it was 5 to 50 nM; at FGFR3 V555M it was 0.5 to 5 nM. On FGFR3 N540K, this compound returned an IC50 of 0.5 to 5 nM.
Regarding `C=CC(=O)N1CC[C@H](n2nc(C#Cc3c(F)cc4oc(N5CCC5)nc4c3F)c3c(N)ncnc32)C1` [Example 74, (S)-1-(3-(4-amino-3-((2-(azetidin-1-yl)-4.6-difluoro-benzo[d]oxazol-5-yl)ethynyl)-1H-pyrazolo[3,4-d]pyrimidin-1-yl)pyrrolidin-1-yl)prop-2-en-1-one], the IC50 is at most 0.5 nM at FGFR2 V564F; 0.5 to 5 nM against FGFR2 V564L; at most 0.5 nM at FGFR2 V564I; 0.5 to 5 nM at FGFR2 N549K; 5 to 50 nM against FGFR2 K659M; at most 0.5 nM on FGFR3 V555M. Besides, the IC50 against FGFR3 N540K was in the range of 0.5 to 5 nM.
